From PubChem BioAssay (NCI) come the findings set out here.

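Step 1: Grow cells in 96-well plates. Step 2: Expose to compound for 48 hours at 5 concentrations. Step 3: Interpolate endpoints linearly; if unreached, use highest concentration. At the GI50, growth is halved. The concentration for full growth arrest is given as TGI.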

Test systems include MOLT-4 leukemia; PC-3 prostate; HOP-92 NSCLC; UACC-257 melanoma; A549 NSCLC; HS 578T breast; UACC-62 melanoma; SN12C renal; CCRF-CEM leukemia; T-47D breast.
What all share (assay): inhibition of tumour cell growth, NCI panel, 48 h

For the compound `Nc1n[nH]c2ccc([C@H]3[C@@H]4C5CCC(C5)[C@@H]4c4c(ccc5[nH]ncc45)N3S(=O)(=O)C3CC3)cc12` (stereo partly drawn), the GI50 in the assay with MOLT-4 leukemia was 184 nM; with PC-3 prostate, 185 nM; with HOP-92 NSCLC, 422 nM; in the assay with UACC-257 melanoma it was 8.04 µM; in the assay on A549 NSCLC, 237 nM; with HS 578T breast, 170 nM. The results for the GI50 with UACC-62 melanoma, in the assay on SN12C renal and in the assay on CCRF-CEM leukemia were 137 nM, 272 nM and 168 nM, respectively. The TGI was 9.85 µM in the assay with PC-3 prostate; 11.1 µM in the assay on HOP-92 NSCLC; > 47.5 µM in the assay on UACC-257 melanoma; > 25.6 µM with A549 NSCLC; 3310 nM with HS 578T breast; 5.54 µM with UACC-62 melanoma. Besides, the figures for the TGI with SN12C renal and with CCRF-CEM leukemia were > 50 µM and > 21.3 µM, respectively.
With `COC(=O)Nc1nc2ccc(C(=O)C3CC3)cc2[nH]1`, the GI50 was 1250 nM in the assay with MOLT-4 leukemia; 346 nM in the assay on PC-3 prostate; 0.417 µM in the assay with UACC-257 melanoma; 452 nM with A549 NSCLC; 280 nM in the assay on HS 578T breast; 487 nM with UACC-62 melanoma. Besides, the GI50 in the assay with SN12C renal is 717 nM; in the assay on CCRF-CEM leukemia it was 332 nM. For the same compound, the TGI in the assay on MOLT-4 leukemia was > 100 µM; in the assay with PC-3 prostate, > 100 µM; in the assay on UACC-257 melanoma, > 100 µM; in the assay with A549 NSCLC, > 100 µM; in the assay on HS 578T breast it was 853 nM; in the assay on UACC-62 melanoma, > 100 µM. In addition, the TGI in the assay on SN12C renal is > 100 µM.
For `COC(=O)c1oc([N+](=O)[O-])c(-c2ccccc2)c1-c1ccccc1`, the TGI with MOLT-4 leukemia, in the assay on HOP-92 NSCLC, in the assay with UACC-257 melanoma, with A549 NSCLC, in the assay on UACC-62 melanoma and in the assay with SN12C renal was > 100 µM each time. Also, in the assay on CCRF-CEM leukemia, the TGI was > 100 µM.
`Cc1ccc(C)c(N2C(=O)C(=O)C(c3nc4ccccc4s3)C(=O)C2=O)c1`: the TGI with MOLT-4 leukemia, with HOP-92 NSCLC, in the assay on UACC-257 melanoma, in the assay on A549 NSCLC, with UACC-62 melanoma and with SN12C renal was > 100 µM each time. Moreover, the TGI in the assay with CCRF-CEM leukemia was > 100 µM.
`OCC(O)COc1ccc(F)cc1` (stereo not drawn): the TGI in the assay on MOLT-4 leukemia, in the assay on HOP-92 NSCLC, with UACC-257 melanoma, in the assay on A549 NSCLC, in the assay on UACC-62 melanoma and in the assay with SN12C renal was > 100 µM in each case. The TGI in the assay on CCRF-CEM leukemia was > 100 µM.
For the compound `C=CCC1=C2CCCCC2CCC1=O` (stereo not drawn), the TGI with MOLT-4 leukemia, with UACC-257 melanoma, in the assay on A549 NSCLC, in the assay with UACC-62 melanoma, in the assay with SN12C renal and with CCRF-CEM leukemia was > 100 µM each time.
In the case of `COC(=O)CCC(=O)C(CC(=O)OC)C(=O)CCC(=O)NCCc1ccccc1` (stereo not drawn), the TGI in the assay with MOLT-4 leukemia, in the assay on HOP-92 NSCLC, in the assay on UACC-257 melanoma, in the assay on A549 NSCLC, in the assay on UACC-62 melanoma and with SN12C renal was > 100 µM each time. For the same compound, in the assay with CCRF-CEM leukemia, the TGI was > 100 µM.
Consider `CC1=CC=C2C(C)(C)CC[C@@H]3OC(=O)[C@H]1[C@]23C`, for which the TGI in the assay with MOLT-4 leukemia, in the assay with HOP-92 NSCLC, in the assay with UACC-257 melanoma, in the assay on A549 NSCLC, with UACC-62 melanoma and in the assay with SN12C renal was > 100 µM throughout. Moreover, the TGI with CCRF-CEM leukemia was > 100 µM.
Regarding `CC[C@H]1[C@@H](C)C=C[C@@H](C)N1S(=O)(=O)c1ccc(C)cc1`, the TGI in the assay with MOLT-4 leukemia, in the assay with UACC-257 melanoma, in the assay with A549 NSCLC, with UACC-62 melanoma, in the assay on SN12C renal and with CCRF-CEM leukemia was > 100 µM each time.
For the compound `CCC(CO)COC(=O)/C=C/C(=O)OCC(CC)CO` (stereo not drawn), the TGI in the assay with MOLT-4 leukemia, in the assay on HOP-92 NSCLC, with UACC-257 melanoma, in the assay on A549 NSCLC, with UACC-62 melanoma and in the assay with SN12C renal was > 100 µM in each case. In the assay on CCRF-CEM leukemia, the TGI is > 82.6 µM.
For the compound `Cc1cc2c(=O)cc(-c3ccc(O)cc3)oc2c(C(=O)O)c1C`, the TGI in the assay with MOLT-4 leukemia, in the assay with HOP-92 NSCLC, in the assay with UACC-257 melanoma, in the assay on A549 NSCLC, in the assay on UACC-62 melanoma and in the assay with SN12C renal was > 100 µM in each case. In addition, the TGI with CCRF-CEM leukemia was > 100 µM.
As to `CCOC(=O)c1sc(Nc2cc(Cl)ccc2Cl)nc1C`, the TGI in the assay on MOLT-4 leukemia is > 100 µM; in the assay with HOP-92 NSCLC, 96.6 µM; with UACC-257 melanoma, > 100 µM; in the assay on A549 NSCLC, > 100 µM; in the assay on SN12C renal, > 100 µM.
`Nc1cc2c(c3ccccc13)C(CCl)CN2C(=O)c1cc2cc(NC(=O)c3cc4ccccc4o3)ccc2[nH]1` (stereo not drawn): the GI50 in the assay with T-47D breast and in the assay on SN12C renal was > 110 nM throughout. Besides, the figures for the TGI with UACC-62 melanoma and with SN12C renal were 0.0206 µM and 1.67 µM, respectively.
Turning to `O=C(O)COc1ccc2c3c1C(=O)CCC3CO2` (stereo not drawn), the TGI in the assay with MOLT-4 leukemia, in the assay on HOP-92 NSCLC, in the assay with UACC-257 melanoma, with A549 NSCLC, with UACC-62 melanoma and in the assay on SN12C renal was > 100 µM throughout. Also, the TGI in the assay on CCRF-CEM leukemia is > 100 µM.
Consider `CC(=O)OC1C(COC(N)=O)OC(n2c(-c3ccc(C)cc3)cc(-c3ccccc3)c(C#N)c2=O)C(OC(C)=O)C1OC(C)=O` (stereo not drawn), for which the TGI in the assay with MOLT-4 leukemia, in the assay on HOP-92 NSCLC, in the assay on UACC-257 melanoma, in the assay with A549 NSCLC, with UACC-62 melanoma and in the assay with SN12C renal was > 100 µM throughout. Besides, the TGI in the assay on CCRF-CEM leukemia is > 100 µM.
For `CN1C(=O)CNS1(=O)=O`, the TGI in the assay with MOLT-4 leukemia, in the assay with HOP-92 NSCLC, in the assay on UACC-257 melanoma, with A549 NSCLC, in the assay with UACC-62 melanoma and in the assay on SN12C renal was > 100 µM each time. Also, in the assay on CCRF-CEM leukemia, the TGI is > 100 µM.
